# Assay results published in ChEMBL document CHEMBL3885881, “DrugMatrix”.
# Species on record: Rattus norvegicus
# Assay: DrugMatrix - Regimen: Daily Repeat
# Type: toxicity, organism-based, Sprague-Dawley
# Set-up: regimen Daily Repeat, gender Male, age 6-8 weeks
# Details: in vivo, sc, route subcutaneous, […]; for ABSOLUTE BASOPHIL / ABSOLUTE EOSINOPHIL / ABSOLUTE LYMPHOCYTE / ABSOLUTE MONOCYTE / ABSOLUTE SEGMENTED NEUTROPHIL / BASOPHIL / EOSINOPHIL / ERYTHROCYTE COUNT / HEMATOCRIT / HEMOGLOBIN / LEUKOCYTE COUNT / LYMPHOCYTE / MEAN CORPUSCULAR HEMOGLOBIN / MEAN CORPUSCULAR HEMOGLOBIN CONCENTRATION / MEAN CORPUSCULAR VOLUME / MONOCYTE / NEUTROPHIL / NUCLEATED RED BLOOD CELLS / PLATELET COUNT: tissue Blood; for ALANINE AMINOTRANSFERASE / ALBUMIN / ALKALINE PHOSPHATASE / ASPARTATE AMINOTRANSFERASE / BLOOD UREA NITROGEN / CARBON DIOXIDE / CHLORIDE / CHOLESTEROL / CREATINE PHOSPHOKINASE / CREATININE / GLUCOSE / LACTATE DEHYDROGENASE / LIPASE / PHOSPHORUS / POTASSIUM / SODIUM / TOTAL BILIRUBIN / TOTAL PROTEIN / URIC ACID: tissue Plasma
# [1] = 0 mg/kg, 72 h, dose level Control, time 3 day
# [2] = 0 mg/kg, 120 h, dose level Control, time 5 day
# [3] = 29 mg/kg, 72 h, dose level Low, time 3 day
smiles,measurement,setting,value
Nc1nc2c(ncn2CCC(CO)CO)c(=O)[nH]1 [PENCICLOVIR],ABSOLUTE BASOPHIL,[1],0 CELLS/uL
same,ABSOLUTE EOSINOPHIL,[1],42.67 CELLS/uL
same,ABSOLUTE LYMPHOCYTE,[1],10202 CELLS/uL
same,ABSOLUTE MONOCYTE,[1],261.5 CELLS/uL
same,ABSOLUTE SEGMENTED NEUTROPHIL,[1],2193.83 CELLS/uL
same,BASOPHIL,[1],0%
same,EOSINOPHIL,[1],0.33%
same,ERYTHROCYTE COUNT,[1],5.63 x10E6/uL
same,HEMATOCRIT,[1],35.35%
same,HEMOGLOBIN,[1],13.07 G/DL
same,LEUKOCYTE COUNT,[1],12.7 x10E3/uL
same,LYMPHOCYTE,[1],81.17%
same,MEAN CORPUSCULAR HEMOGLOBIN,[1],23.23 pg
same,MEAN CORPUSCULAR HEMOGLOBIN CONCENTRATION,[1],36.97 G/DL
same,MEAN CORPUSCULAR VOLUME,[1],62.82 fL
same,MONOCYTE,[1],2%
same,NEUTROPHIL,[1],16.5%
same,NUCLEATED RED BLOOD CELLS,[1],0 /100WBC
same,PLATELET COUNT,[1],1180.33 x10E3/uL
same,ALANINE AMINOTRANSFERASE,[1],48.67 u/L
same,ALBUMIN,[1],4.08 G/DL
same,ALKALINE PHOSPHATASE,[1],360.67 u/L
same,ASPARTATE AMINOTRANSFERASE,[1],85.5 u/L
same,BLOOD UREA NITROGEN,[1],17.83 mg/dL
same,CARBON DIOXIDE,[1],26.17 mmol/L
same,CHLORIDE,[1],101.83 MEQ/L
same,CHOLESTEROL,[1],71 mg/dL
same,CREATINE PHOSPHOKINASE,[1],515.17 u/L
same,CREATININE,[1],0.22 mg/dL
same,GLUCOSE,[1],192.5 mg/dL
same,LACTATE DEHYDROGENASE,[1],214.67 u/L
same,LIPASE,[1],8.5 u/L
same,PHOSPHORUS,[1],12.95 mg/dL
same,POTASSIUM,[1],6.39 MEQ/L
same,SODIUM,[1],142.38 MEQ/L
same,TOTAL BILIRUBIN,[1],0.18 mg/dL
same,TOTAL PROTEIN,[1],5.95 G/DL
same,URIC ACID,[1],1.83 mg/dL
same,ABSOLUTE BASOPHIL,[2],0 CELLS/uL
same,ABSOLUTE EOSINOPHIL,[2],188.5 CELLS/uL
same,ABSOLUTE LYMPHOCYTE,[2],12360.83 CELLS/uL
same,ABSOLUTE MONOCYTE,[2],64.33 CELLS/uL
same,ABSOLUTE SEGMENTED NEUTROPHIL,[2],1986.33 CELLS/uL
same,BASOPHIL,[2],0%
same,EOSINOPHIL,[2],1.33%
same,ERYTHROCYTE COUNT,[2],5.52 x10E6/uL
same,HEMATOCRIT,[2],35.82%
same,HEMOGLOBIN,[2],13.25 G/DL
same,LEUKOCYTE COUNT,[2],14.6 x10E3/uL
same,LYMPHOCYTE,[2],84.5%
same,MEAN CORPUSCULAR HEMOGLOBIN,[2],24.05 pg
same,MEAN CORPUSCULAR HEMOGLOBIN CONCENTRATION,[2],36.98 G/DL
same,MEAN CORPUSCULAR VOLUME,[2],64.97 fL
same,MONOCYTE,[2],0.5%
same,NEUTROPHIL,[2],13.67%
same,NUCLEATED RED BLOOD CELLS,[2],0 /100WBC
same,PLATELET COUNT,[2],1297.83 x10E3/uL
same,ALANINE AMINOTRANSFERASE,[2],51.17 u/L
same,ALBUMIN,[2],4.08 G/DL
same,ALKALINE PHOSPHATASE,[2],393.17 u/L
same,ASPARTATE AMINOTRANSFERASE,[2],111 u/L
same,BLOOD UREA NITROGEN,[2],18.17 mg/dL
same,CARBON DIOXIDE,[2],25 mmol/L
same,CHLORIDE,[2],105.17 MEQ/L
same,CHOLESTEROL,[2],65.5 mg/dL
same,CREATINE PHOSPHOKINASE,[2],911.5 u/L
same,CREATININE,[2],0.21 mg/dL
same,GLUCOSE,[2],183 mg/dL
same,LACTATE DEHYDROGENASE,[2],189 u/L
same,LIPASE,[2],8.33 u/L
same,PHOSPHORUS,[2],12.78 mg/dL
same,POTASSIUM,[2],6.05 MEQ/L
same,SODIUM,[2],144.57 MEQ/L
same,TOTAL BILIRUBIN,[2],0.25 mg/dL
same,TOTAL PROTEIN,[2],5.83 G/DL
same,URIC ACID,[2],1.58 mg/dL
same,ABSOLUTE BASOPHIL,[3],0 CELLS/uL
same,ABSOLUTE EOSINOPHIL,[3],232.67 CELLS/uL
same,ABSOLUTE LYMPHOCYTE,[3],11739.33 CELLS/uL
same,ABSOLUTE MONOCYTE,[3],92.67 CELLS/uL
same,ABSOLUTE SEGMENTED NEUTROPHIL,[3],1668.67 CELLS/uL
same,BASOPHIL,[3],0%
same,EOSINOPHIL,[3],1.67%
same,ERYTHROCYTE COUNT,[3],5.23 x10E6/uL
same,HEMATOCRIT,[3],33.7%
same,HEMOGLOBIN,[3],12.47 G/DL
same,LEUKOCYTE COUNT,[3],13.73 x10E3/uL
same,LYMPHOCYTE,[3],85.67%
same,MEAN CORPUSCULAR HEMOGLOBIN,[3],23.87 pg
same,MEAN CORPUSCULAR HEMOGLOBIN CONCENTRATION,[3],36.97 G/DL
same,MEAN CORPUSCULAR VOLUME,[3],64.5 fL
same,MONOCYTE,[3],0.67%
same,NEUTROPHIL,[3],12%
same,NUCLEATED RED BLOOD CELLS,[3],0 /100WBC
same,PLATELET COUNT,[3],1318 x10E3/uL
same,ALANINE AMINOTRANSFERASE,[3],47 u/L
same,ALBUMIN,[3],4.03 G/DL
same,ALKALINE PHOSPHATASE,[3],451.67 u/L
same,ASPARTATE AMINOTRANSFERASE,[3],88.67 u/L
same,BLOOD UREA NITROGEN,[3],15 mg/dL
same,CARBON DIOXIDE,[3],28 mmol/L
same,CHLORIDE,[3],104.67 MEQ/L
same,CHOLESTEROL,[3],64 mg/dL
same,CREATINE PHOSPHOKINASE,[3],727.67 u/L
same,CREATININE,[3],0.21 mg/dL
same,GLUCOSE,[3],162.33 mg/dL
same,LACTATE DEHYDROGENASE,[3],101 u/L
same,LIPASE,[3],8.33 u/L
same,PHOSPHORUS,[3],13 mg/dL
same,POTASSIUM,[3],6.56 MEQ/L
same,SODIUM,[3],146.33 MEQ/L
same,TOTAL BILIRUBIN,[3],0.2 mg/dL
same,TOTAL PROTEIN,[3],5.9 G/DL
same,URIC ACID,[3],1.7 mg/dL
